# Source: ChEMBL document CHEMBL1201862, “PubChem BioAssay data set” (2004)
#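 Cells were grown in 96-well plates and exposed to each compound for 48 hours at five concentrations; endpoints were interpolated linearly between bracketing concentrations, or set to the highest concentration if not reached. GI50: concentration for 50% inhibition of growth.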 The source made the active and inactive calls. Rule as the data show it: active = GI50 up to about 1.1 µM and inactive = higher.
# Key:
# Assay in all cases: NCI-60 cell line screen, 48 h
# [1] = test system: MDA-MB-435
# [2] = test system: HCC 2998
# [3] = test system: Malme-3M
# [4] = test system: NCI-H23
# [5] = test system: NCI-H226
# [6] = test system: M14
# [7] = test system: SR
# [8] = test system: K562
# [9] = test system: T47D
# [10] = test system: UACC-257
# [11] = test system: SW-620
# [12] = test system: SN12C
# [13] = test system: IGROV-1
# [14] = test system: 786-0
# [15] = test system: KM12
# [16] = test system: BT-549
# [17] = test system: U-251
# [18] = test system: MDA-N
# [19] = test system: HL-60
# [20] = test system: MCF7
# [21] = test system: Hs-578T
# [22] = test system: CCRF-CEM
# [23] = test system: HCT-116
# [24] = test system: PC-3
# [25] = test system: SNB-75
# [26] = test system: ACHN
# [27] = test system: SF-268
# [28] = test system: COLO 205
# [29] = test system: HCT-15
# [30] = test system: MDA-MB-231
# [31] = test system: MOLT-4
# [32] = test system: HOP-62
# [33] = test system: UO-31
# [34] = test system: SK-OV-3
# [35] = test system: SF-539
# [36] = test system: SK-MEL-5
# [37] = test system: NCI-H460
# [38] = test system: OVCAR-3
# [39] = test system: NCI/ADR-RES
# [40] = test system: HT-29
# [41] = test system: SF-295
# [42] = test system: DU-145
# [43] = test system: UACC-62
# [44] = test system: CAKI-1
# [45] = test system: OVCAR-5
# [46] = test system: SNB-19
# [47] = test system: NCI-H522
# [48] = test system: SK-MEL-2
# [49] = test system: OVCAR-8
# [50] = test system: A498
# [51] = test system: A549
# [52] = test system: OVCAR-4
# [53] = test system: HOP-92
# [54] = test system: TK-10
# [55] = test system: RXF 393
# [56] = test system: LOX IMVI
# [57] = test system: RPMI-8226
# [58] = test system: EKVX
compound,measurement,setting,value
Cc1ncc([N+](=O)[O-])n1CCNC(=O)CCCCCn1ccnc1[N+](=O)[O-],GI50,[1],> 100 µM (inactive)
same,GI50,[2],> 100 µM (inactive)
same,GI50,[3],> 100 µM (inactive)
same,GI50,[4],> 100 µM (inactive)
same,GI50,[5],> 100 µM (inactive)
same,GI50,[6],> 100 µM (inactive)
same,GI50,[7],> 100 µM (inactive)
same,GI50,[8],> 100 µM (inactive)
same,GI50,[9],> 100 µM (inactive)
same,GI50,[10],> 100 µM (inactive)
same,GI50,[11],> 100 µM (inactive)
same,GI50,[12],> 100 µM (inactive)
same,GI50,[13],> 100 µM (inactive)
same,GI50,[14],> 100 µM (inactive)
same,GI50,[15],> 100 µM (inactive)
same,GI50,[16],> 100 µM (inactive)
same,GI50,[17],> 100 µM (inactive)
same,GI50,[18],> 100 µM (inactive)
same,GI50,[19],> 100 µM (inactive)
same,GI50,[20],> 100 µM (inactive)
same,GI50,[21],> 100 µM (inactive)
same,GI50,[22],> 100 µM (inactive)
same,GI50,[23],> 100 µM (inactive)
same,GI50,[24],> 100 µM (inactive)
same,GI50,[25],> 100 µM (inactive)
same,GI50,[26],> 100 µM (inactive)
same,GI50,[27],> 100 µM (inactive)
same,GI50,[28],43.6 µM (inactive)
same,GI50,[29],> 100 µM
same,GI50,[30],> 100 µM (inactive)
same,GI50,[31],> 100 µM (inactive)
same,GI50,[32],> 100 µM (inactive)
same,GI50,[33],> 100 µM (inactive)
same,GI50,[34],> 100 µM (inactive)
same,GI50,[35],> 100 µM (inactive)
same,GI50,[36],> 100 µM (inactive)
same,GI50,[37],> 100 µM (inactive)
same,GI50,[38],> 100 µM (inactive)
same,GI50,[39],> 100 µM (inactive)
same,GI50,[40],> 100 µM (inactive)
same,GI50,[41],> 100 µM (inactive)
same,GI50,[42],> 100 µM (inactive)
same,GI50,[43],> 100 µM (inactive)
same,GI50,[44],> 100 µM (inactive)
same,GI50,[45],> 100 µM (inactive)
same,GI50,[46],> 100 µM (inactive)
same,GI50,[47],> 100 µM (inactive)
same,GI50,[48],> 100 µM (inactive)
same,GI50,[49],> 100 µM (inactive)
same,GI50,[50],> 100 µM (inactive)
same,GI50,[51],> 100 µM (inactive)
Nc1nc(=O)n(C2CC(O)C(CO)O2)c2nc(-c3ccc(-c4ccccc4)cc3)cnc12 (configuration not stated),GI50,[1],97.7 µM (inactive)
same,GI50,[2],41.9 µM (inactive)
same,GI50,[3],41.7 µM (inactive)
same,GI50,[4],99.3 µM (inactive)
same,GI50,[5],25.6 µM (inactive)
same,GI50,[6],> 100 µM (inactive)
same,GI50,[7],27.7 µM (inactive)
same,GI50,[8],38 µM (inactive)
same,GI50,[52],> 100 µM (inactive)
same,GI50,[9],18.6 µM (inactive)
same,GI50,[10],> 100 µM (inactive)
same,GI50,[11],> 100 µM (inactive)
same,GI50,[12],62.7 µM (inactive)
same,GI50,[13],> 100 µM (inactive)
same,GI50,[14],40.1 µM (inactive)
same,GI50,[15],> 10 µM (inactive)
same,GI50,[16],> 100 µM (inactive)
same,GI50,[17],18.6 µM (inactive)
same,GI50,[18],58.2 µM (inactive)
same,GI50,[20],15.5 µM (inactive)
same,GI50,[21],36.3 µM (inactive)
same,GI50,[53],56.2 µM (inactive)
same,GI50,[22],27.6 µM (inactive)
same,GI50,[23],> 100 µM (inactive)
same,GI50,[24],37.6 µM (inactive)
same,GI50,[54],> 100 µM (inactive)
same,GI50,[25],23 µM (inactive)
same,GI50,[26],> 100 µM (inactive)
same,GI50,[27],30.7 µM (inactive)
same,GI50,[55],31.2 µM (inactive)
same,GI50,[28],> 100 µM (inactive)
same,GI50,[29],> 100 µM
same,GI50,[30],21.9 µM (inactive)
same,GI50,[31],25.9 µM (inactive)
same,GI50,[56],38.8 µM (inactive)
same,GI50,[57],> 100 µM (inactive)
same,GI50,[32],27.2 µM (inactive)
same,GI50,[33],> 100 µM (inactive)
same,GI50,[34],> 100 µM (inactive)
same,GI50,[35],30 µM (inactive)
same,GI50,[36],15.9 µM (inactive)
same,GI50,[37],> 100 µM (inactive)
same,GI50,[39],> 100 µM (inactive)
same,GI50,[58],96.4 µM (inactive)
same,GI50,[40],> 100 µM (inactive)
same,GI50,[41],48.5 µM (inactive)
same,GI50,[42],> 100 µM (inactive)
same,GI50,[43],25.3 µM (inactive)
same,GI50,[44],> 100 µM (inactive)
same,GI50,[45],> 100 µM (inactive)
same,GI50,[46],29 µM (inactive)
same,GI50,[47],22.1 µM (inactive)
same,GI50,[48],44.6 µM (inactive)
same,GI50,[49],67.9 µM (inactive)
same,GI50,[50],> 100 µM (inactive)
same,GI50,[51],> 100 µM (inactive)
